Here are results for one compound from patent US4985445A, “Cancer cell metastasis inhibitors and novel compounds” (Meiji Seika Kaisha, Ltd., priority 1988, dated 1991).

In general, LD50 refers to the dose at which mortality reaches 50%. A higher LD50 goes with a less toxic substance.

Where two headings read alike, the source gives them in different places.

Data set [1] in a line: Acute toxicity (LD50) by mice. Conditions: mouse, in vivo, ip.
Data set [2] deals with B16 subline of high pulmonary metastatic potential. Conditions: Table 2, B16 subline, 3 days. Here is the method:
(§1) The B16 subline of high pulmonary metastatic potential and murine tumor cell line L 929 were cultured in DME medium supplemented with 10% bovine fetal serum at 37° C. in the presence of 5% CO2. Then, cells were detached from the Petri dish with trypsin-EDTA solution. The B16 subline and L 929 were suspended in the medium described above in 1×10^4 cells/ml and 1×10^3 cells/ml, respectively. Each suspension, 150 μl, was added to 50 μl of N-(3-phenylpropyl)-1-deoxynojirimycin solution or Adriamycin (control) solution. Incubation was performed for 3 days for the B16 subline and for 4 days for L 929 strain.
as §1, with “of N-(4-phenoxy-trans-2-butenyl)-1-deoxynojirimycin” for “of N-(3-phenylpropyl)-1-deoxynojirimycin”, “days in” for “days for”, “L 929.” for “L 929 strain.”
The B16 subline of high pulmonary metastatic potential and murine tumor cell line L 929 were cultured in DME medium supplemented with 10% bovine fetal serum at 37° C. in the presence of 5% CO2. Then, cells were detached from the Petri dish with trypsin-EDTA solution. The B16 subline and L 929 were suspended in the medium described above in 1×10^4 cells/ml and 1×10^3 cells/ml, respectively. Each suspension, 150 μl, was added to 50 μl of D-glucaro-δ-lactam calcium salt solution or Adriamycin (control) solutions. Incubation was performed for 3 days in the B16 subline and for 4 days in L 929.
The B16 subline of high pulmonary metastatic potential and murine tumor cell line L 929 were cultured in DME medium supplemented with 10% bovine fetal serum at 37° C. in the presence of 5% CO2. Then, cells were detached from the Petri dish with trypsin-EDTA solution. The B16 subline and L 929 were suspended in the medium described above in 1×10^4 cells/ml and 1×10^3 cells/ml, respectively. Each suspension, 150 μl, was added to 50 μl of 2,6-di-O-(1-(p-chlorobenzoyl)-5-methoxy-2-methylindole-3-acetyl)-D-gluco-δ-lactam solution or and Adriamycin (control) solutions. Incubation was performed for 3 days in the B16 subline and for 4 days in L 929.
The B16 subline of high pulmanary metastatic potential and murine tumor cell line L 929 were cultured in DME medium supplemented with 10% bovine fetal serum at 37° C. in the presence of 5% CO2. Then, cells were detached from the Petri dish with trypsin-EDTA solution. The B16 subline and L 929 were suspended in the medium described above in 1×10^4 cells/ml and 1×10^3 cells/ml, respectively. Each suspension, 150 μl, was added to 50 μl of 6-O-triphenylmethyl-D-gluco-δ-lactam solution or Adriamycin (control) solutions. Incubation was performed for 3 days in the B16 sibline and for 4 days in L 929.
The B16 subline of high pulmonary metastatic potential was inoculated into DME medium supplemented with 10% bovine fetal serum and 30 μg/ml of 1-deoxynojirimycin was added thereto followed by incubation at 37° C. for 3 days in the presence of 5% CO2. […] Next, the cells were detached from the Petri dish with trypsin-EDTA solution. The cells were suspended in PBS- in 1×10^6 cells/ml as viable cells. This suspension, 0.1 ml, was intravenously injected in the tail vein of the mouse BDF1 (8 week age, male; 1 group, 3 mice). After feeding for 14 days, the mouse was sacrificed to excise the lungs. The number of colonies of the B16 subline on the surface of and in the lungs was counted.
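Throughout, for Growth: + means growth and ± means marked inhibition and - means cell death.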

For the compound `OC[C@@H]1[C@@H](O)[C@H](O)[C@@H](O)CN1CCCc1ccccc1` [N-(3-Phenylpropyl)-1-deoxynojirimycin, N-(3-phenylpropyl)-1-deoxynojirimycin], the LD50 in data set [1] was more than 500 mg/kg. Further, the figures for the Growth result in data set [2] (30 μg/ml), in data set [2] (100 μg/ml) and in data set [2] (300 μg/ml) were “+”, “+” and “±”, respectively.
